Reference: ChEMBL document CHEMBL1201862, “PubChem BioAssay data set” (2004)
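These data come from cells grown in 96-well plates and exposed to compound for 48 hours at five concentrations. The concentration for 50% growth inhibition is given as GI50.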 Active and inactive are the calls of the source. No stated cut-off is given here; in the data, active = GI50 up to about 1.1 µM and inactive = higher.

Columns and labels:
Test in all cases: inhibition of tumour cell growth, NCI panel, 48 h
[1] = test system: CAKI-1
[2] = test system: COLO 205
[3] = test system: HL-60
[4] = test system: HOP-92
[5] = test system: M14
[6] = test system: MDA-MB-231
[7] = test system: MOLT-4
[8] = test system: Malme-3M
[9] = test system: NCI/ADR-RES
[10] = test system: OVCAR-4
[11] = test system: OVCAR-5
[12] = test system: RXF 393
[13] = test system: SF-539
[14] = test system: SK-MEL-5
[15] = test system: TK-10
[16] = test system: BT-549
[17] = test system: HOP-62
[18] = test system: MCF7
[19] = test system: SK-MEL-2
[20] = test system: UACC-62

Compound | GI50 [1] | GI50 [2] | GI50 [3] | GI50 [4] | GI50 [5] | GI50 [6] | GI50 [7] | GI50 [8] | GI50 [9] | GI50 [10] | GI50 [11] | GI50 [12] | GI50 [13] | GI50 [14] | GI50 [15] | GI50 [16] | GI50 [17] | GI50 [18] | GI50 [19] | GI50 [20]
NC1=C(N2CCCCC2)C(=O)NC2=N/C(=C\c3ccco3)C(=O)N21 | > 100 µM (inactive) | > 100 µM (inactive) | > 100 µM (inactive) | > 100 µM (inactive) | > 100 µM (inactive) | > 100 µM (inactive) | > 100 µM (inactive) | > 100 µM (inactive) | > 100 µM (inactive) | > 100 µM (inactive) | > 100 µM (inactive) | > 100 µM (inactive) | > 100 µM (inactive) | > 100 µM (inactive) | > 100 µM (inactive) |  |  |  |  | 
CC1(C)C[C@@H]2C1CCC1(C)CC2(O)CC[C@H]1O (some centres undefined) | > 100 µM (inactive) | > 100 µM (inactive) | > 100 µM (inactive) | > 100 µM (inactive) | > 100 µM (inactive) |  | > 100 µM (inactive) | > 100 µM (inactive) | > 100 µM (inactive) | > 100 µM (inactive) | > 100 µM (inactive) |  |  | > 100 µM (inactive) | > 100 µM (inactive) | > 100 µM (inactive) | > 100 µM (inactive) | > 100 µM (inactive) | > 100 µM (inactive) | > 100 µM (inactive)
CC1(C)CC[C@]2(C(=O)O)CC[C@]3(C)C(=CCC4=C5C[C@H](O)[C@H](O)[C@@](C)(CO)[C@@]5(C)CC[C@]43C)[C@@H]2C1 | 28.1 µM (inactive) | 15.2 µM (inactive) | 6.05 µM (inactive) | > 100 µM (inactive) | 66.2 µM (inactive) | > 100 µM (inactive) | 47.3 µM (inactive) | 69.2 µM (inactive) | 43.4 µM (inactive) | 36.7 µM (inactive) | > 100 µM (inactive) |  | 56.9 µM (inactive) | 22.9 µM (inactive) | 53.6 µM (inactive) |  | > 100 µM (inactive) | 44.6 µM (inactive) | 80.5 µM (inactive) | 46 µM (inactive)
O=C(O)CC(C(=O)O)C1c2ccccc2-c2ccccc21 (centres undefined) | 66.1 µM (inactive) | 81.8 µM (inactive) | > 100 µM (inactive) |  | > 100 µM (inactive) | > 100 µM (inactive) | 48.2 µM (inactive) | 58.6 µM (inactive) | > 100 µM (inactive) | > 100 µM (inactive) |  | > 100 µM (inactive) |  | > 100 µM (inactive) | > 100 µM (inactive) | > 100 µM (inactive) | 38.2 µM (inactive) | 34.2 µM (inactive) | > 100 µM (inactive) | > 100 µM (inactive)
O=C(CC(C(=O)c1ccsc1)c1ccccc1)c1ccccc1 (centres undefined) | > 100 µM (inactive) | > 100 µM (inactive) | 0.484 µM (active) | > 100 µM (inactive) | > 100 µM (inactive) |  | > 100 µM (inactive) |  | 18.7 µM (inactive) | 6.5 µM (inactive) | > 100 µM (inactive) | > 100 µM (inactive) | > 100 µM (inactive) | 43.2 µM (inactive) | > 100 µM (inactive) |  | > 100 µM (inactive) | > 100 µM (inactive) |  | 71.1 µM (inactive)
CCCCCCCCCCCCOC1C(COCCN2CCCCC2)OC2OC(C)(C)OC21 (centres undefined) | 1.73 µM (inactive) | 1.66 µM (inactive) | 1.24 µM (inactive) |  | 1.63 µM (inactive) | 1.91 µM (inactive) | 1.53 µM (inactive) | 1.86 µM (inactive) | 4.3 µM (inactive) |  | 1.85 µM (inactive) | 1.7 µM (inactive) | 1.76 µM (inactive) | 1.58 µM (inactive) | 1.83 µM (inactive) | 2.21 µM (inactive) | 1.84 µM (inactive) | 1.73 µM (inactive) | 1.73 µM (inactive) | 1.84 µM (inactive)
COCCN1C(=O)C2c3[nH]c4ccccc4c3C3CCC(C(C)(C)C)CC3C2C1=O (centres undefined) | 23.1 µM (inactive) | 18.2 µM (inactive) | 16 µM (inactive) |  | 18.5 µM (inactive) | 17.3 µM (inactive) | > 10 µM (inactive) |  | 17.4 µM (inactive) | 16.9 µM (inactive) |  | 20.4 µM (inactive) | 19.1 µM (inactive) | 17 µM (inactive) | > 10 µM (inactive) | 18.8 µM (inactive) | 18.6 µM (inactive) | 18.4 µM (inactive) |  | > 10 µM (inactive)
CCOc1cccc(-c2cc(O)c3cc4c(cc3n2)OCO4)c1 | 0.2 µM (active) | 0.206 µM (active) | 0.044 µM (active) | 0.264 µM (active) | 0.371 µM (active) | 0.243 µM (active) | 0.296 µM (active) | 0.141 µM (active) | 0.0828 µM (active) | 82 µM (inactive) |  | 0.0953 µM (active) | 0.13 µM (active) | 0.0505 µM (active) | 0.421 µM (active) |  | 0.621 µM (active) | 0.673 µM (active) | 0.191 µM (active) | 0.043 µM (active)
CC(C)(C)C1CCC(=O)/C(=C/CC2CC(=O)N(c3ccccc3)C(=O)C2)C1 (centres undefined) | 20.9 µM (inactive) | 20.8 µM (inactive) | 26.8 µM (inactive) |  |  | 44 µM (inactive) | 34.1 µM (inactive) | 18.6 µM (inactive) | 17.8 µM (inactive) | 32.7 µM (inactive) | 17.4 µM (inactive) |  |  | 16.4 µM (inactive) | 17.5 µM (inactive) | 20.4 µM (inactive) | 30.2 µM (inactive) | 19.3 µM (inactive) | 19.4 µM (inactive) | 14.5 µM (inactive)
C=C1CCC2[C@](C)(CCC[C@]2(C)C(=O)O)[C@@H]1CCc1ccoc1 (some centres undefined) | 32.8 µM (inactive) | 17.4 µM (inactive) | 45.8 µM (inactive) |  | 41.1 µM (inactive) | 49.2 µM (inactive) | 32.5 µM (inactive) | 32.2 µM (inactive) | 38.5 µM (inactive) | 48.6 µM (inactive) | 90.6 µM (inactive) | 36.2 µM (inactive) | 37 µM (inactive) | 36.6 µM (inactive) | 24.2 µM (inactive) |  | 40.6 µM (inactive) |  | 29.4 µM (inactive) | 35.2 µM (inactive)
NC1CC=C(COC(=O)C(O)(c2ccccc2)C2CC2)CC1 (centres undefined) | > 100 µM (inactive) | > 100 µM (inactive) |  |  | > 100 µM (inactive) | > 100 µM (inactive) | > 100 µM (inactive) | > 100 µM (inactive) | > 100 µM (inactive) |  | > 100 µM (inactive) | > 100 µM (inactive) | > 100 µM (inactive) | > 100 µM (inactive) | > 100 µM (inactive) |  | > 100 µM (inactive) | > 100 µM (inactive) |  | > 100 µM (inactive)
COc1cc(NCC2COc3c(ccc(OC)c3OC)C2=O)c([N+](=O)[O-])cc1OC (centres undefined) | > 100 µM (inactive) | 54.7 µM (inactive) | 36.8 µM (inactive) |  | > 100 µM (inactive) | 79.1 µM (inactive) | 16.4 µM (inactive) |  | > 100 µM (inactive) | 82.4 µM (inactive) | > 100 µM (inactive) |  | > 100 µM (inactive) | 44.3 µM (inactive) | > 100 µM (inactive) | > 10 µM (inactive) | > 100 µM (inactive) | 39.3 µM (inactive) | > 100 µM (inactive) | 77.8 µM (inactive)
Cc1c(C)c(S(=O)(=O)N(CCCCN)OCCCN)c(C)c2c1OC(C)(C)CC2 | 32.1 µM (inactive) | 31.2 µM (inactive) | 1 µM (active) | 17.8 µM (inactive) | 28.6 µM (inactive) | 21.7 µM (inactive) | 19.6 µM (inactive) |  | 74.6 µM (inactive) | 13.8 µM (inactive) | 15.1 µM (inactive) |  | 24 µM (inactive) | 33 µM (inactive) | 14.5 µM (inactive) |  | 13.4 µM (inactive) | 26.6 µM (inactive) | 11.1 µM (inactive) | 20.7 µM (inactive)
CN(CO)c1nc(N(C)CO)nc(N(C)CO)n1 [TRIMELAMOL] | 23.8 µM (inactive) | 8.53 µM (inactive) | 4.75 µM (inactive) |  | 21.8 µM (inactive) | 21.5 µM (inactive) | 27.2 µM (inactive) | 12.8 µM (inactive) |  |  | 26.4 µM (inactive) | 11.6 µM (inactive) |  | 6.95 µM (inactive) | 31.8 µM (inactive) | 20.9 µM (inactive) | 20 µM (inactive) | 16.1 µM (inactive) |  | 13.3 µM (inactive)
CCC(C)(O)c1cnc(CC(C)C)c(=O)n1O (centres undefined) | 43.8 µM (inactive) | 54.7 µM (inactive) |  | 85.9 µM (inactive) |  | 43.3 µM (inactive) | 21.4 µM (inactive) |  |  | 74.3 µM (inactive) | 0.597 µM (active) | > 100 µM (inactive) |  | 88.1 µM (inactive) | 97.7 µM (inactive) | > 100 µM (inactive) | 42.9 µM (inactive) |  | 57.3 µM (inactive) | 68.2 µM (inactive)
CC(C)(C)C(=O)C(C(=O)c1ccccc1)C(=O)C(C)(C)C | > 100 µM (inactive) | > 100 µM (inactive) | > 100 µM (inactive) | > 100 µM (inactive) | > 100 µM (inactive) | 98.2 µM (inactive) | > 100 µM (inactive) | > 100 µM (inactive) | 30.5 µM (inactive) | 64.7 µM (inactive) | > 100 µM (inactive) | > 100 µM (inactive) | > 100 µM (inactive) | > 100 µM (inactive) | > 100 µM (inactive) |  | > 100 µM (inactive) | > 100 µM (inactive) | > 100 µM (inactive) | 
